Test results: PubChem BioAssay (NCI)
Where “and” joins values, the source holds several entries; their conditions need not be identical. Equal entries are not always repeated.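 Dose response: 5 concentrations. Exposure: 48 h. Format: 96-well plates. Endpoint: linear interpolation; highest concentration if not reached. GI50 = concentration required for 50% inhibition of growth. TGI: concentration producing complete growth inhibition.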

Tests used:
Test in all cases: NCI tumour cell line growth inhibition, 48 h
[1] = test system: OVCAR-5 ovarian
[2] = test system: HCC-2998 colon
[3] = test system: K-562 leukemia
[4] = test system: PC-3 prostate
[5] = test system: LOX IMVI melanoma
[6] = test system: IGROV1 ovarian
[7] = test system: NCI-H522 lung
[8] = test system: COLO 205 colon
[9] = test system: U251 CNS
[10] = test system: DU-145 prostate

Structure (SMILES)	TGI [1]	TGI [2]	TGI [3]	TGI [4]	TGI [5]	TGI [6]	TGI [7]	TGI [8]	TGI [9]	TGI [10]	GI50 [1]	GI50 [2]	GI50 [3]	GI50 [4]	GI50 [5]	GI50 [6]	GI50 [7]	GI50 [8]	GI50 [9]	GI50 [10]
CC(C)CC1NC(=O)C(C(C)C)NC(=O)CC(C)COC(=O)C(CC(C)C)N(C)C(=O)C(C(C)C)NC(=O)C(C(C)C)OC1=O (stereo unspecified)	> 50 µM	> 50 µM	> 50 µM	> 50 µM	> 50 µM	> 50 µM	> 50 µM	> 50 µM	> 50 µM	> 50 µM										
COc1ccc(CNC(=O)c2c(C)n([O-])c3cc(F)c(F)cc3[n+]2=O)cc1	29.4 µM	5.77 µM	4.05 µM	23.9 µM	17.5 µM	3.84 µM	27 µM	24.3 µM	25.5 µM	26.5 µM	16 µM	2.07 µM	1.93 µM	11.7 µM	5.22 µM	1.9 µM	11.5 µM	11.2 µM	12.8 µM	13.7 µM
CN(C)c1ccc(/C=N/NC(=O)c2cnc3ccccc3c2)cc1	> 100 µM	> 100 µM	> 100 µM	> 100 µM	> 100 µM	> 100 µM	> 100 µM	> 100 µM	> 100 µM	> 100 µM										
CCC(=O)Oc1ccc(/C=N/NC(N)=S)nc1	> 100 µM	> 100 µM	> 100 µM	> 100 µM	> 100 µM	> 100 µM	76.5 µM	> 100 µM	> 100 µM	> 100 µM	34 µM	13.6 µM	5.05 µM	6.83 µM	2.91 µM	9.94 µM	4.58 µM	27.5 µM	4.5 µM	3.05 µM
CCCC(CCC)C(=O)O	> 20000 µM	> 100 µM and 16700 µM	> 20000 µM	> 20000 µM	> 20000 µM	> 20000 µM	> 20000 µM	> 100 µM and 10300 µM	> 20000 µM	> 20000 µM	> 20000 µM	> 100 µM	> 100 µM	> 100 µM	> 100 µM	> 100 µM	> 100 µM	> 100 µM	> 100 µM	> 100 µM
COc1cc2c3c(n(CCCN4CCN(CCO)CC4)c(=O)c2cc1OC)-c1cc2c(cc1C3=O)OCO2	40.9 µM	20.4 µM	29.4 µM	35.4 µM	8.77 µM	> 50.9 µM	> 51.2 µM	> 57.2 µM	> 48.6 µM	2.41 µM	19.9 µM	6.25 µM	5.95 µM	13.2 µM	3.72 µM	> 34.2 µM	> 33 µM	15.1 µM	> 33.7 µM	0.107 µM
O=C1/C(=C/c2cccc(F)c2)CN(C(=O)C(Cl)Cl)C/C1=C\c1cccc(F)c1	0.887 µM	0.737 µM		0.539 µM	0.109 µM	0.531 µM	0.522 µM	1.16 µM	0.294 µM	1.36 µM	0.29 µM	0.272 µM	0.0332 µM	0.186 µM	0.0385 µM	0.209 µM	0.202 µM	0.332 µM	0.116 µM	0.392 µM
CC1SC(c2cccc(Cl)c2)N(NC(=O)C(O)c2ccccc2)C1=O (stereo unspecified)	> 100 µM	> 100 µM	> 100 µM	> 100 µM	> 100 µM	> 100 µM	> 100 µM	> 100 µM	> 100 µM	> 100 µM	> 100 µM	> 100 µM	69.4 µM	> 100 µM	> 100 µM	68.7 µM	> 100 µM	> 100 µM	> 100 µM	> 100 µM
COC(=O)CCc1c(/C=C2\N=C(c3ccc[nH]3)C=C2OC)[nH]c(C)c1C(=O)OCc1ccccc1	9.84 µM	6.04 µM	3.39 µM	> 37.6 µM	0.418 µM	2.41 µM	2.88 µM	2.03 µM	2.28 µM	> 55.6 µM	0.684 µM	0.404 µM	0.252 µM	0.228 µM	0.169 µM	0.355 µM	0.653 µM	0.341 µM	0.36 µM	0.345 µM
COc1ccc2c(c1)C(=O)c1c-2n(CCCNCCO)c(=O)c2cc([N+](=O)[O-])ccc12	0.239 µM	0.557 µM		1.33 µM	0.0905 µM	1.81 µM	2.82 µM	2.01 µM	1.03 µM		< 0.0128 µM	< 0.0232 µM		< 0.0137 µM	< 0.01 µM	0.0283 µM	< 0.01 µM	0.018 µM	< 0.01 µM	< 0.01 µM
